121 compounds from a melting point compilation (Tetko et al.) can be followed below.

Molecules are shown by their SMILES.

Usually melting point stands for the temperature of the solid-liquid transition. For the compound `CCCc1c(C(=O)O)cnn1C1CCCC1`, the melting point is 113 to 115 °C.

`O=C(O)c1ccc(N2CCCC2)c(F)c1` returned a melting point of 269 to 271 °C.

For the compound `COC(=O)c1ccsc1N1CCC(N)C1=O` (stereo unspecified), the melting point fell in the range of 88 to 90 °C.

Regarding `O=C(O)c1cc(C(F)(F)F)ccc1SC1CCCC1`, the melting point was 174 to 176 °C.

Regarding `COc1cc(C)c(N)cc1OC`, the melting point lay within 39 to 41 °C.

`C=CCN(c1ccccc1Cl)S(=O)(=O)c1cccc(C(=O)O)c1` returned a melting point of 103 to 105 °C.

The compound `CCOc1ccc(C#N)cn1` returned a melting point of 97 to 99 °C.

On to `FC(F)(F)c1cc(Cl)nc(-c2ccncc2)n1`, for which the melting point fell in the range of 158 to 160 °C.

On to `CCOC(=O)C1=C(CC)Nc2ccccc2N=C1N`, for which the melting point was in the range of 152 to 154 °C.

For `O=C(O)C1CCN(S(=O)(=O)Cc2ccccc2)CC1`, the melting point lay in the range of 191 to 193 °C.

`NC1CCCOc2ccccc21` (stereo unspecified) showed a melting point of 69 to 71 °C.

Turning to `O=C(c1ccc(O)cc1)c1ccc(F)cc1`, the melting point was in the range of 170 to 172 °C.

With `O=S(=O)(NCC1CC1)c1ccc(Cl)nc1`, the melting point was 95 to 97 °C.

Turning to `CC1CCCN(S(=O)(=O)c2ccc(N)cc2)C1` (stereo unspecified), the melting point lay in the range of 129 to 131 °C.

In the case of `NC(=NO)c1ccc(N2CCC(O)CC2)cc1`, the melting point lay within 169 to 171 °C.

In turn, `Cc1cnc(C#N)nc1` came in with a melting point of 67 to 69 °C.

On to `N#Cc1ccc(N2CCC(C(=O)O)CC2)nc1`, for which the melting point is 174 to 176 °C.

On to `N#Cc1ccccc1S(=O)(=O)N1CCN(C(=O)CCl)CC1`, for which the melting point was 206 to 208 °C.

In the case of `Cc1cc(-c2nnco2)ccc1[N+](=O)[O-]`, the melting point lay in the range of 119 to 121 °C.

`Clc1nc(-c2cccnc2)nc2sc(-c3ccccc3)cc12` yielded a melting point of 179 to 182 °C.

For the compound `O=C1C(=O)N(CO)c2ccccc21`, the melting point was 157 to 159 °C.

`CC(C)n1cc(S(=O)(=O)Cl)cn1`: the melting point lay in the range of 53 to 55 °C.

For `O=C(O)c1cn(Cc2ccccc2)nc1-c1cccs1`, the melting point fell in the range of 131 to 133 °C.

Consider `Nc1ccc(N2CCOCC2)cc1C(=O)O`, for which the melting point fell in the range of 235 to 237 °C.

Compound `CN1C(=O)CC(O)C1=O` (stereo unspecified) came in with a melting point of 82 to 87 °C.

On to `COc1ccc(NC(=O)Oc2ccccc2)c([N+](=O)[O-])c1`, for which the melting point lay in the range of 43 to 48 °C.

`Nc1ncc(Cc2ccc(Br)cc2)s1` registered a melting point of 129 to 131 °C.

With `CCC(=O)NCc1cc(S(N)(=O)=O)ccc1OC`, the melting point was 119 to 121 °C.

Compound `CCN(CC)S(=O)(=O)c1ccc2nc(CCl)[nH]c2c1` displayed a melting point of 93 to 95 °C.

For `CCCCCOc1ccc2cc(C(=O)O)[nH]c2c1`, the melting point lay in the range of 162 to 164 °C.

As to `Clc1ccc(-c2cc(CBr)on2)cc1`, the melting point lay in the range of 116 to 118 °C.

As to `Cc1ccc2c(C)cc(=O)[nH]c2c1`, the melting point lay within 209 to 211 °C.

For `CC(C)C(Br)C(=O)NC1CCCCC1` (stereo unspecified), the melting point lay within 116 to 118 °C.

For the compound `Nc1nc2nc(-c3cccs3)cc(C(F)(F)F)c2s1`, the melting point was 243 to 245 °C.

As to `Cc1ccc(CN(C)c2ccc(C(=O)O)cc2)cc1`, the melting point was in the range of 177 to 179 °C.

As to `O=C(O)C1CCCN(C(=O)c2c[nH]c3ccccc23)C1` (stereo unspecified), the melting point is 231 to 233 °C.

The compound `FC(F)c1nc(Cl)c2ccccc2n1` came in with a melting point of 85 to 87 °C.

`COc1ncnc(N(C)C)c1N` showed a melting point of 69 to 71 °C.

`O=[N+]([O-])c1ccc2c(c1)NCCS2`: the melting point lay within 142 to 144 °C.

`Nc1cc(N2CCNC2=O)ccc1Cl` gave a melting point of 224 to 226 °C.

`COc1ccnc(N2CCC(C(=O)O)CC2)n1` came in with a melting point of 131 to 133 °C.

Take `Cc1ccc(CC(=O)O)c(Cl)c1`: the melting point fell in the range of 129 to 131 °C.

Regarding `NCC(O)(c1ccccc1)C(F)(F)F` (stereo unspecified), the melting point fell in the range of 76 to 78 °C.

As for `CCN1C(=O)CNC1=O`, the melting point was 100 to 102 °C.

With `CC(C)c1nn(-c2ccccc2)cc1C(=O)O`, the melting point lay within 169 to 171 °C.

For `Cc1ccc(NCCc2ccc(Cl)cc2)nn1`, the melting point is 163 to 165 °C.

The compound `N#Cc1cccc(Oc2ccc(Cl)cc2)n1` registered a melting point of 86 to 88 °C.

As to `CN(C)c1ccc(C(N)=NO)cc1`, the melting point lay within 169 to 171 °C.

Compound `Cc1ccc(S(N)(=O)=O)cc1C` returned a melting point of 117 to 119 °C.

In turn, `CCn1ncc2c(C(=O)O)cc(-c3cccs3)nc21` yielded a melting point of 243 to 245 °C.

Take `Cn1cnc2cc(C=O)ccc21`: the melting point was in the range of 99 to 101 °C.

Consider `CC1(C)CC(=O)CC(C)(C)N1C(=O)CCl`, for which the melting point lay in the range of 67 to 69 °C.

The compound `Cc1ccccc1C(N)=NO` displayed a melting point of 81 to 83 °C.

Take `Cc1nc(S)oc1C`: the melting point fell in the range of 132 to 134 °C.

As for `CC1(C2CCNCC2)NC(=O)NC1=O` (stereo unspecified), the melting point was in the range of 243 to 245 °C.

On to `O=C(O)Cc1csc(NC(=O)c2ccco2)n1`, for which the melting point fell in the range of 223 to 225 °C.

In turn, `CCS(=O)(=O)Nc1ccc(C(=O)O)cn1` gave a melting point of 236 to 238 °C.

Take `CC(C)(C(=O)O)c1ccc(Cl)c(Cl)c1`: the melting point fell in the range of 94 to 96 °C.

`CCOc1cc2c(cc1OCC)CNCC2` yielded a melting point of 108 to 110 °C.

In the case of `CC(=O)c1cnc2nncn2c1C`, the melting point was 192 to 193 °C.

`Nc1nc2c(Br)cc(OC(F)(F)F)cc2s1` returned a melting point of 202 to 204 °C.

For the compound `CCOC(=O)COc1ccccc1O`, the melting point lay within 51 to 53 °C.

In the case of `COC(=O)Nc1cccc(O)c1`, the melting point lay within 95 to 97 °C.

In turn, `CNC(=O)COc1ccc(C=O)cc1OC` registered a melting point of 105 to 107 °C.

In the case of `c1ccc(-c2cncc(-c3ccccc3)n2)cc1`, the melting point was 86 to 88 °C.

As for `Nc1ccc(Cl)c(CO)n1`, the melting point fell in the range of 147 to 149 °C.

`O=C(O)CCn1c(=O)oc2cc(Cl)ccc21` had a melting point of 160 to 162 °C.

Consider `CCOC(=O)C(C)(C#N)Cc1ccncc1` (stereo unspecified), for which the melting point lay within 56 to 58 °C.

Turning to `CC(C)(C)c1ccc(-c2cc(N)on2)cc1`, the melting point lay within 148 to 150 °C.

The compound `CCc1onc(C)c1C(=O)O` yielded a melting point of 126 to 128 °C.

`Cn1cc([N+](=O)[O-])cn1` gave a melting point of 91 to 93 °C.

As to `COc1ccccc1C1(C)CC1C(=O)O` (stereo unspecified), the melting point lay within 166 to 168 °C.

The compound `O=C(O)c1sc2cc(Br)ccc2c1Cl` came in with a melting point of 286 to 288 °C.

`CC(=O)c1c[nH]c2cc(Br)ccc12` yielded a melting point of 239 to 241 °C.

With `Cc1ccc(C2(C)CC(=O)NC2=O)cc1` (stereo unspecified), the melting point is 69 to 71 °C.

With `CCN(CC)S(=O)(=O)c1cccc(C(=O)NCC(=O)O)c1`, the melting point was in the range of 69 to 71 °C.

As for `CCCOc1ccc2ccccc2c1C=O`, the melting point was 65 to 68 °C.

`Cc1nncn1-c1cccc(N)c1` returned a melting point of 109 to 111 °C.

Take `CCOC(=O)c1c(NC(=O)CCl)sc(-c2ccccc2)c1C`: the melting point is 106 to 108 °C.

`O=C(O)c1sc2cc(C(F)(F)F)ccc2c1Cl` yielded a melting point of 205 to 207 °C.

Turning to `CNC(=O)c1c[nH]c2ccccc12`, the melting point lay within 203 to 205 °C.

The compound `COC(=O)c1nc2n(n1)-c1ccccc1S(=O)(=O)N2` yielded a melting point of 262 to 264 °C.

`CC(Cl)C(=O)Nc1ccc([N+](=O)[O-])cc1` (stereo unspecified): the melting point was 138 to 140 °C.

`Cn1c(SCC(=O)O)nc2ccccc21` gave a melting point of 155 to 159 °C.

With `CSc1ccc(C(=O)O)cc1[N+](=O)[O-]`, the melting point is 225 to 227 °C.

On to `Cc1ccc(NC2C=CS(=O)(=O)C2)cc1C` (stereo unspecified), for which the melting point was 177 to 179 °C.

Compound `O=C(O)c1ccc(-c2nc3ccccc3s2)o1` showed a melting point of 180 to 188 °C.

`CC(=O)N[C@@H](CC(=O)O)C(N)=O` yielded a melting point of 159 to 161 °C.

In turn, `c1ccc(Nc2ncccn2)cc1` gave a melting point of 107 to 109 °C.

`CN(C)c1ccc(NC(=S)NN)cc1` registered a melting point of 167 to 169 °C.

Turning to `O=CC1=C(Sc2ccccc2)CCCC1`, the melting point is 42 to 44 °C.

Regarding `Nc1ccc(C(=O)Nc2ccc3cn[nH]c3c2)cc1`, the melting point lay in the range of 272 to 274 °C.

The compound `O=C(O)Cn1ccnn1` gave a melting point of 214 to 216 °C.

For `NC1(C(=O)NCC2CC2)CCCC1`, the melting point was in the range of 64 to 66 °C.

Turning to `Nc1cc(NC(=O)c2ccccc2I)ccc1F`, the melting point is 202 to 204 °C.

Compound `O=[N+]([O-])c1cnc(O)c(Cl)c1` yielded a melting point of 198 to 200 °C.

`CC(C(=O)O)N1CCSCC1` (stereo unspecified) registered a melting point of 199 to 201 °C.

The compound `Cc1csc(NCC(F)(F)F)n1` gave a melting point of 142 to 144 °C.

`O=S(=O)(Cl)c1cnccc1Cl` showed a melting point of 45 to 47 °C.

`O=C(O)CCc1c(-c2ccccc2)[nH]c2ccc(F)cc12` registered a melting point of 161 to 163 °C.

On to `O=C(O)C=Cc1cc(Br)ccc1OCc1ccccc1Cl`, for which the melting point is 192 to 194 °C.

For `CC1(C)Nc2ccccc2NC1=O`, the melting point fell in the range of 179 to 181 °C.

`CC(C)(C)c1ccc(C(C)(C)C(=O)O)cc1` had a melting point of 165 to 167 °C.

For the compound `COC(=O)c1cc(Cl)cc(S(=O)(=O)Cl)c1`, the melting point is 50 to 52 °C.

`Nc1nc(-c2cc3ccccc3o2)cs1` registered a melting point of 243 to 245 °C.

`CCCCS(=O)(=O)NCC(=O)O`: the melting point fell in the range of 65 to 67 °C.

Turning to `CN(C)Cc1ccc(C(N)=O)cc1N`, the melting point was in the range of 156 to 158 °C.

As to `CC(C)(C)OC(=O)Nc1ccc(C(=O)O)c(Cl)c1`, the melting point lay within 169 to 171 °C.

For `Cc1ccc2c(CC(=O)O)coc2c1C`, the melting point was 148 to 152 °C.

`O=C1C=CC(=O)N1c1ccc2ccccc2c1` showed a melting point of 120 to 124 °C.

Regarding `CN(C)C(=O)Cn1cnc(N)n1`, the melting point fell in the range of 135 to 137 °C.

In the case of `Nc1nc(-c2nc3ccccc3s2)cs1`, the melting point lay within 248 to 250 °C.

`COc1ccc(S(=O)(=O)Nc2nccs2)cc1`: the melting point lay in the range of 172 to 174 °C.

`CC(=O)NCC(=O)NCC(=O)O`: the melting point lay in the range of 174 to 176 °C.

On to `CN(c1ccccc1)c1ccc(C=O)cc1[N+](=O)[O-]`, for which the melting point was 95 to 97 °C.

Compound `CCc1ccccc1NC(=O)CN1CCNCC1` came in with a melting point of 88 to 90 °C.

For `CC(C)NC(=O)c1cccc(CN)c1`, the melting point was 105 to 107 °C.

Compound `CCOC(=O)c1cnn2c1NCCC2` registered a melting point of 159 to 161 °C.

Compound `CC(C)Cn1[nH]c(-c2ccccc2)cc1=N` showed a melting point of 99 to 101 °C.

Compound `Cc1nn(C)c(C(F)F)c1C(=O)O` came in with a melting point of 165 to 167 °C.

For the compound `O=C(O)c1c(Cl)nc2sccn12`, the melting point lay within 181 to 183 °C.
